Measurements: US10538532B2, “Hepatitis B antiviral agents” (ENANTA PHARMACEUTICALS, INC., priority 2016, dated 2020)

What follows are compounds tested on HBV (assay: HepAD38 antiviral assay: reduction of viral product accumulation (virion DNA by qPCR, HBsAg or HBeAg by ELISA)). Conditions: HepAD38 cells, five days after compound addition; concentration reducing viral product accumulation by 50% relative to no drug controls; read-out: HepAD38 EC50.
Assay type: cell-based, hepatitis B virus
Protocol: Methods: HepAD38 cells are maintained as previously reported (Ladner et al, Antimicrob. Agents Chemother. 1997, […], 1715). Briefly, cells are passaged upon attaining confluency in DMEM/F12 media in the presence of 10% FBS, Penn/Strep, 250 μg/mL G418, and 1 ug/ml tetracycline. Novel compounds are screened by first washing cells three times with PBS to remove tetracycline, and plating in 96 well plates at 35,000 cells/well. Compounds dissolved in DMSO are then diluted 1:200 into wells containing cells. Five days after compound addition, material is harvested for analysis. For an extended 8 day analysis, cells are plated and treated as described above, but media and compound are refreshed on d2 and d5 post initial treatment.
On harvest day, virion DNA is obtained by lysing with Sidestep Lysis and Stabilization Buffer and then quantified via quantitative real time PCR. Commercially available ELISA kits are used to quantitate the viral proteins HBsAg (Alpco) or HbeAg (US Biological) by following the manufacturer's recommended protocol after diluting samples to match the linear range of their respective assays. Irrespective of readout, compound concentrations that reduce viral product accumulation in the cell lysates or supernatants by 50% relative to no drug controls (EC50) are reported; EC50 ranges are as follows: A<0.1 μM; B 0.1-0.4 μM; C>0.4 μM.

Compound	EC50
O=C(Nc1cc(F)c(F)c(F)c1)c1ccc(Cl)c(S(=O)(=O)[C@H]2CC3CCC(C2)[C@@H]3O)c1 [Example 360]	< 100 nM
O=C(Nc1cc(F)c(F)c(F)c1)c1ccc(Cl)c(S(=O)(=O)C2CC3CCC(C2)C3=O)c1 (centres unmarked) [Example 206]	> 400 nM

Same assay, conditions: Hepatitis B virus, HePAD38, 120 h, HepAD38 cells, five days after compound addition; concentration reducing viral product accumulation by 50% relative to no drug controls; read-out: HepAD38 EC50

Compound	EC50
O=C(Nc1cc(F)c(F)c(F)c1)c1ccc(Cl)c(S(=O)(=O)[C@H]2C3CC[C@H]2C[C@H](Cn2cccn2)C3)c1 [Example 311]	< 100 nM
O=C(Nc1cc(F)c(F)c(F)c1)c1ccc(Cl)c(S(=O)(=O)C2CCCC(O)CC2)c1 (centres unmarked) [Example 125]	100 to 400 nM
O=C(Nc1cc(F)c(F)c(F)c1)c1ccc(Cl)c(S(=O)(=O)C[C@H]2OC[C@H](O)[C@@H]2O)c1 [Example 108]	> 400 nM
O=C(Nc1cc(F)c(F)c(F)c1)c1ccc(Cl)c(S[C@H]2CC3CCC(C2)[C@@H]3O)c1 [Example 190]	> 400 nM
NC(=O)OCC1=C[C@@H]2CCC(C1)C2S(=O)(=O)c1cc(C(=O)Nc2cc(F)c(F)c(F)c2)ccc1Cl (some centres unmarked) [Example 262]	< 100 nM
CC(O)[C@]1(O)CC2CC[C@@H](C1)[C@H]2S(=O)(=O)c1cc(C(=O)Nc2cc(F)c(F)c(F)c2)ccc1Cl (some centres unmarked) [Example 136]	< 100 nM
O=C(Nc1cc(F)c(F)c(F)c1)c1ccc(Cl)c(SCc2ccccn2)c1 [Example 32]	> 400 nM
O=C(Nc1cc(F)c(F)c(F)c1)c1ccc(Cl)c(S[C@H]2CC[C@H](O)CC2)c1 [Example 10]	100 to 400 nM
O=C(Nc1cc(F)c(F)c(F)c1)c1ccc(Cl)c(S(=O)(=O)[C@H]2CC3CCC(C2)[C@]3(O)C[N+]2([O-])C[C@@H](O)[C@H](O)C2)c1 [Example 343]	100 to 400 nM
N#Cc1cc(NC(=O)c2ccc(Cl)c(S(=O)(=O)[C@H]3CC[C@H](O)CC3)c2)ccn1 [Example 56]	> 400 nM
C#C[C@]1(O)CC2CC[C@@H](C1)[C@H]2S(=O)(=O)c1cc(C(=O)Nc2cc(F)c(F)c(F)c2)ccc1Cl [Example 162]	< 100 nM
O=C(Nc1cc(F)c(F)c(F)c1)c1ccc(Cl)c(S(=O)(=O)C[C@@H]2C[C@@H](O)[C@@H](O)C2)c1 [Example 102]	100 to 400 nM
CCOC(=O)/C=C1/CC2CC[C@@H](C1)[C@H]2S(=O)(=O)c1cc(C(=O)Nc2cc(F)c(F)c(F)c2)ccc1Cl [Example 221]	100 to 400 nM
C=CCOC[C@]1(O)CC2CC[C@@H](C1)[C@H]2S(=O)(=O)c1cc(C(=O)Nc2cc(F)c(F)c(F)c2)ccc1Cl [Example 270]	< 100 nM
C[C@]1(O)CC[C@@H](S(=O)(=O)c2cc(C(=O)Nc3cc(F)c(F)c(F)c3)ccc2Cl)CC1 [Example 22]	100 to 400 nM
CCOC(=O)/C=C/[C@]1(O)CC2CC[C@@H](C1)[C@H]2S(=O)(=O)c1cc(C(=O)Nc2cc(F)c(F)c(F)c2)ccc1Cl [Example 222]	> 400 nM
O=C(Nc1cc(F)c(F)c(F)c1)c1ccc(Cl)c(S(=O)(=O)[C@@H]2C3C=C(CO)CC2CC3)c1 (some centres unmarked) [Example 141]	100 to 400 nM
CC(=O)OC[C@]1(OC(C)=O)CC2CC[C@@H](C1)[C@H]2S(=O)(=O)c1cc(C(=O)Nc2cc(F)c(F)c(F)c2)ccc1Cl [Example 185]	< 100 nM
O=C(Nc1cc(F)c(F)c(F)c1)c1ccc(Cl)c(S(=O)(=O)[C@H]2CC3CCC(C2)[C@@]3(O)Cn2cccn2)c1 [Example 261]	> 400 nM
O=C1CCC(S(=O)(=O)c2cc(C(=O)Nc3cc(F)c(F)c(F)c3)ccc2Cl)C1 (centres unmarked) [Example 57]	> 400 nM
O=C(Nc1cc(F)c(F)c(F)c1)c1ccc(Cl)c(S(=O)(=O)[C@H]2CC3CCC(C2)[C@]3(O)C(O)CO)c1 (some centres unmarked) [Example 352]	< 100 nM
CCOC(=O)C(Cc1ccncc1)S(=O)(=O)c1cc(C(=O)Nc2cc(F)c(F)c(F)c2)ccc1Cl (centres unmarked) [Example 103]	> 400 nM

Compound	EC50
O=C(Nc1cc(F)c(F)c(F)c1)c1ccc(Cl)c(S(=O)(=O)C2CCCCC2)c1 [Example 12]	100 to 400 nM
CC(C)(C)[Si](C)(C)O[C@H]1C2CCC1C[C@@H](S(=O)(=O)c1cc(C(=O)Nc3cc(F)c(F)c(F)c3)ccc1Cl)C2 [Example 195]	> 400 nM
O=C(Nc1cc(F)c(F)c(F)c1)c1ccc(Cl)c(S(=O)(=O)Cc2ccccc2)c1 [Example 27]	> 400 nM
O=C(Nc1cc(F)c(F)c(F)c1)c1ccc(Cl)c(S(=O)(=O)[C@H]2C3CC[C@H]2C[C@]2(CO2)C3)c1 [Example 139]	< 100 nM
O=C1CC2CC[C@@H](C1)[C@H]2S(=O)(=O)c1cc(C(=O)Nc2cc(F)c(F)c(F)c2)ccc1Cl [Example 130]	< 100 nM
CC(C)(C)OC(=O)N[C@H]1CC[C@H](S(=O)(=O)c2cc(C(=O)Nc3cc(F)c(F)c(F)c3)ccc2Cl)CC1 [Example 54]	100 to 400 nM
O=C(O)/C=C/[C@]1(O)CC2CC[C@@H](C1)[C@H]2S(=O)(=O)c1cc(C(=O)Nc2cc(F)c(F)c(F)c2)ccc1Cl [Example 225]	> 400 nM
O=C(Nc1cc(F)c(F)c(F)c1)c1ccc(Cl)c(S(=O)(=O)C[C@H]2CC3CC2[C@H](O)[C@@H]3O)c1 (some centres unmarked) [Example 241]	< 100 nM
CCOC(=O)[C@@H](NC[C@]1(O)C2CCC1C[C@@H](S(=O)(=O)c1cc(C(=O)Nc3cc(F)c(F)c(F)c3)ccc1Cl)C2)C(C)C [Example 340]	> 400 nM
O=C(Nc1ccc(F)c(F)c1)c1ccc(Cl)c(S(=O)(=O)[C@H]2CC[C@H](O)CC2)c1 [Example 51]	100 to 400 nM
O=C(Nc1cc(F)c(F)c(F)c1)c1ccc(Cl)c(S(=O)(=O)C2CCNCC2)c1 [Example 74]	> 400 nM
O=C(Nc1cc(F)c(F)c(F)c1)c1ccc(Cl)c(S(=O)(=O)[C@H]2C3CC[C@H]2C[C@](O)(COC/C=C/c2ccncc2)C3)c1 [Example 326]	> 400 nM
CC(C)(O)C(O)[C@]1(O)C2CCC1C[C@H](S(=O)(=O)c1cc(C(=O)Nc3cc(F)c(F)c(F)c3)ccc1Cl)C2 (some centres unmarked) [Example 363]	< 100 nM
O=C(Nc1cc(F)c(F)c(-n2cccn2)c1)c1ccc(Cl)c(S(=O)(=O)[C@H]2C3CC[C@H]2C[C@](O)(Cn2cccn2)C3)c1 [Example 333]	> 400 nM
O=C(Nc1cc(F)c(F)c(F)c1)c1ccc(Cl)c(S(=O)(=O)[C@H]2C3CC[C@H]2C[C@](O)(C(O)c2ccccc2)C3)c1 (some centres unmarked) [Example 149]	< 100 nM
O=C(Nc1cc(F)c(F)c(F)c1)c1ccc(Cl)c(S(=O)(=O)C2C3CCCC2CC(O)(CO)C3)c1 (centres unmarked) [Example 133]	100 to 400 nM
O=C(Nc1cc(F)c(F)c(F)c1)c1ccc(Cl)c([S+]([O-])Cc2ccncc2)c1 (centres unmarked) [Example 47]	> 400 nM
CC(C)[C@H](NC(=O)OC(C)(C)C)C(=O)O[C@H]1CC[C@H](S(=O)(=O)c2cc(C(=O)Nc3cc(F)c(F)c(F)c3)ccc2Cl)CC1 [Example 76]	100 to 400 nM
O=C(Nc1cc(F)c(F)c(F)c1)c1ccc(Cl)c(S(=O)(=O)[C@H]2C3CC[C@H]2C[C@](O)(C#Cc2ccncc2)C3)c1 [Example 169]	< 100 nM
CC(=O)OC[C@]1(O)CC2CC[C@@H](C1)[C@H]2S(=O)(=O)c1cc(C(=O)Nc2cc(F)c(F)c(F)c2)ccc1Cl [Example 132]	< 100 nM
CO/N=C/[C@]1(O)CC2CC[C@@H](C1)[C@H]2S(=O)(=O)c1cc(C(=O)Nc2cc(F)c(F)c(F)c2)ccc1Cl [Example 201]	< 100 nM
O=C(Nc1cc(F)c(F)c(F)c1)c1ccc(Cl)c(S(=O)(=O)CC2CC3CCC2C(O)C3O)c1 (centres unmarked) [Example 243]	< 100 nM

Same assay, conditions: Hepatitis B virus, HePAD38, 120 h, read-out: HepAD38 EC50

Compound	EC50
CC(C)(C)[Si](C)(C)O[C@H]1C2CCC1C[C@@H](Sc1cc(C(=O)Nc3cc(F)c(F)c(F)c3)ccc1Cl)C2 [Example 189]	100 to 400 nM
